Source: US20180079912A1, “ANTIFOULING MATERIALS” (priority 2013, published 2018)
Square brackets hold non-standard residues; d marks the D form. Peptide text beside a SMILES is read from it. Phe(4-F) = N[C@@H](Cc1ccc(F)cc1)C(=O)O; Dopa = N[C@@H](Cc1ccc(O)c(O)c1)C(=O)O

How the values were obtained:
[1] = Contact angle measurements of peptide-coated surfaces; type: physicochemical; conditions: titanium substrate coated with peptide; bare 43.2°; 0.5 mg/mL in methanol
Method: The clean surfaces were dipped in a peptide solution (0.5 mg/mL in methanol) and left for overnight at RT. Then, they were rinsed extensively with methanol and dried under nitrogen. Contact angle measurements were carried out using a Theta Lite optical tensiometer (Attension, Finland). Each experimental measurement consisted of three repeats, and the reported angles were averaged. […] We chose this concentration of peptide since it formed a substantial coating that gave a good signal in various characterization methods. After incubation, we thoroughly washed the substrate with methanol and dried it under nitrogen. Due to the hydrophobic moieties of the peptides, water could not be used as a solvent system despite its high polarity. We used methanol as the solvent since it dissolved the peptide completely, and at the same time allowed it to adhere the substrate. Since methanol is a toxic solvent, we also examined other solvents with different polarities.

[2] = QCM-D real-time adhesion of peptides to Ti sensor (Sauerbrey model); conditions: QCM-D on Ti sensor, 0.5 mg/mL in MeOH, 40 minutes
Method: QCM-D (Q-sense, Biolin Scientific) was used for the study of peptide adhesion onto Ti surface. Measurements were performed in a flow module E1 system. Ti sensors with a fundamental resonant frequency of 5 MHz were also purchased from Q-sense and used as supplied. Prior to each experiment Ti sensors were cleaned with Oxygen/Plasma (Atto, Diener Electronic), followed by rinsing with 2% SDS and TDW and finally dried under N2. All QCM-D experiments were performed under flow-through conditions using a digital peristaltic pump ([…] Peristaltic Pump, IDEX) operating in pushing mode. The studied solutions were injected to the sensor crystal chamber at a rate of 0.1 mL/min. Organic solvent compatible tube and O-ring were used for the flow system. Peptides were dissolved in MeOH to a concentration of 0.5 mg/mL. The data were fitted with Sauerbrey model. According to this model the mass of adhering layer is calculated as […]

[3] = AFM topography of mica coated with the peptides; type: physicochemical; conditions: coated mica substrate, 0.5 mg/mL in methanol overnight
Method: Freshly cleaved mica surfaces were dipped overnight in different peptide solution at a concentration of 0.5 mg/mL in methanol. Then, the surfaces were washed with fresh methanol and dried under N2.

[4] = Layer thickness on Ti evaluated by XPS; type: physicochemical; conditions: Ti substrates, prolonged incubation
Method: The X-ray Photoelectron Spectroscopy (XPS) measurements were performed using a Kratos AXIS Ultra X-ray photoelectron spectrometer (Kratos Analytical Ltd., Manchester, UK). Spectra were acquired using the A1-Kα monochromatic X-ray source (1,486.7 eV). Sample take-off angle was 90° (i.e. normal to the analyzer). The vacuum pressure in the analyzing chamber maintained to 2·10^-9 Torr. […] Data analyses were done using the Kratos Vision data reducing processing software (Kratos Analytical Ltd.) and […] Software Ltd.). Using the XPS measurements, it is possible to calculate the thickness of the assembled layers. We have done so using the standard attenuation relations of the photoelectrons emerging from different sample depths. The thickness calculation is based on the Briggs et al. method and others. For the Au substrate, the overlay thickness d (nm) expressed as: […] Calculated, using S. Tougard […] software (http://www.quases.com). Inelastic electron mean free path calculated from the Tanuma, Powell and Penn algorithm [Penn, 1994].

[5] = Coating thickness by ellipsometry (Cauchy model); type: physicochemical; conditions: Cauchy film model
Method: The thickness of the peptide-based coating was measured using α-SE spectroscopic ellipsometer (J. A. Woollam, Lincoln, Nebr., USA). […] The thickness of the layers and refractive indices were fitted according to the Cauchy model. The coefficients of the Cauchy equation were initially fixed for organic layers (An=1.45, Bn=0.01 and Cn=0), and an angle offset was permitted. Then, the parameters were allowed to be fitted to determine more accurate values.

[6] = Dynamic water contact angles, tilting-plate method; type: physicochemical; conditions: gold substrate after coating
Method: (§1) The wetting properties were further investigated by the tilting-plate method that measured the dynamic contact angles, because it was essential in the confirmation of self-cleaning properties to investigate the dynamic water contact angles and surface free energies. The advancing (yadv) and receding (yrec) water contact angles of f-DOPA-coated substrates were measured, and the contact angle hysteresis (i.e., (yadv-yrec)) of each substrate was calculated. […] A water droplet on the substrate easily rolled off at a tilt angle of 5.31, which is clear evidence of self-cleaning properties. […] In addition, the surface free energy (gS) was calculated based on the Owens-Wendt geometric mean equation that divides the surface free energy into the dispersive (gDS) and polar (gPS) ones.

[7] = Surface free energy, Owens-Wendt geometric mean equation; type: physicochemical; conditions: f-DOPA-coated gold surface; water and diiodomethane
Method: as §1
The surface free energy (gS; gS=gDS+gPS) of each surface was determined by measuring the contact angles with water and diiodomethane (CH2I2). The surface free energy of the f-DOPA-coated gold surface was calculated to be 0.279 mJ m^−2, and the other substrates have the surface free energies between 0.2 and 0.9 mJ m^−2. These values are extremely low, probably because of both the structural roughness and the incorporated perfluoro groups. For comparison, the surface free energy of a smooth surface modified with CF3 groups in hexagonal close packing was reported to be 6.7 mJ m^−2. […]

[8] = XPS, SEM and AFM of f-DOPA films; type: physicochemical
Method: After 12 h, the substrate was washed with acetonitrile, and the coating process was repeated with a fresh f-DOPA solution.

Compound | contact angle [1] [°] | Density [2] [Kg/m^3] | Mass/Area [2] [ng/cm^2] | Thickness [2] | height of spherical-like aggregates (AFM) [3] | average thickness of the peptide layer evaluated by XPS [4] [nm] | thickness of the coating by ellipsometry [5] [nm] | contact angle hysteresis [6] | tilt angle at which a water droplet rolled off [6] | surface free energy [7] [mJ m^−2] | film thickness ([8]; f-DOPA coating on gold, from disappearance of Au XPS peaks) [nm] | root-mean-square roughness (AFM) ([8]; f-DOPA film) [nm]
NH2-L-DOPA-L(4F)-Phe(2)-L(4F)-Phe(3)-COOMe [Peptide 1] | 68.1 | 767 ± 4 | 72.1 ± 0.4 | 9.11 ± 0.05 Å | 0.25-0.50 nm | 3.9±0.1 |  |  |  |  |  | 
COC(=O)[C@H](Cc1ccc(F)cc1)NC(=O)[C@@H](N)Cc1ccc(O)c(O)c1 [Peptide 6, NH2-L-DOPA-L-(4F) Phe-COOMe] (H-[Dopa]-[Phe(4-F)]-OMe) |  | 805 | 13 ± 2 | 1.7 ± Å | 1.02-3.65 nm | 3.82±0.04 | 3.66±0.04 |  |  |  |  | 
NH2-L-DOPA-D-(4F)Phe(2)-D-(4F)Phe(3)-COOMe [Peptide 4] |  | 769 | 45 ± 2 | 5.6 ± 0.3 Å | 0.32-0.65 nm | 4.41±0.03 |  |  |  |  |  | 
NC(Cc1ccc(O)c(O)c1)C(=O)OCCC(F)(F)C(F)(F)C(F)(F)C(F)(F)C(F)(F)C(F)(F)C(F)(F)C(F)(F)F (centres unmarked) [f-DOPA] |  |  |  |  |  |  |  | 9.91 | 5.31 | 0.279 | ≥ 10 | 533.92
NH2-L-DOPA-D-(4F)Phe(2)-L-(4F)Phe(3)-COOMe [Peptide 3] |  | 760 | 43 ± 4 | 5.4 ± 0.5 Å | 0.20-2.30 nm | 3.9±0.1 |  |  |  |  |  | 
NH2-DOPA-L-(F5)Phe(2)-L-(F5)Phe(3)-COOMe [Peptide 5] |  | 717 | 27 ± 3 | 3.4 ± Å | 1.00-5.00 nm | 4.2±0.1 | 5.2±0.1 |  |  |  |  | 
NH2-L-DOPA-L-(4F)Phe(2)-D-(4F)Phe(3)-COOMe [Peptide 2] |  | 824 | 57 ± 3 | 7.3 ± 0.3 Å | 0.20-0.48 nm | 4.3±0.1 |  |  |  |  |  | 
